Data: US5773449A, “Thioquinolone compounds which have useful pharmaceutical activity” (Zenyaku Kogyo Kabushiki Kaisha, priority 1994, dated 1998)
In brackets after ≈: the same amount, converted by molar mass.

Tested on: peptic ulcer
Test: not given
Settings: H2-blocker / proton-pump inhibitor; cited from earlier work

| Compound | cure rate |
| --- | --- |
| CN/C(=N/CCSCc1nc[nH]c1C)NC#N [cimetidine] | 80-90% |

Tested on: S.aureus FDA 209P
Test: Antibacterial Test 2: agar plate dilution method (aerobic MIC method), S.aureus
Type: cell-based
Settings: Staphylococcus aureus, FDA209P, sensitive-disk agar medium-N
Procedure: (§1) Then, tested were antibacterial activities of the typical compounds of the present invention against gram-positive and-negative bacteria other than Hp. MICs of the typical compounds of the present invention were determined in substantial accordance with agar plate dilution method (aerobic MIC method) based on Standard method of The Japan Society of Chemotherapy.
(§2) The respective test compound were dissolved in dimethyl sulfoxide (DMSO) and serially diluted twofold. These diluted solutions of the compounds were respectively added to sensitive-disk agar medium-N (manufactured by NISSUI SEIYAKU) to prepare agar plates for determination with concentration of 0.05-100 μg/ml.
(§3) The below-mentioned strains freezingly conserved at -135° C. were thawed in a warm bath (40° C.), cultured in a sensitivity-determining bouillon at 37° C. for 18-20 hours, and then diluted with the above-mentioned medium to prepare about 1.0×10^6CFU/ml of bacterial solution.
(§4) Inoculation was made by 5 μl by multi-inoculator (manufactured by SAKUMA SEISAKUSHO). Culturing was made under the same conditions as those of the pre-culturing and the MIC (unit: μg/ml) was determined by observing whether the bacteria grew or not.

| Compound | MIC |
| --- | --- |
| CC(C)Oc1ccc2c(=S)cc[nH]c2c1 [compound 23, 7-Isopropyloxyquinoline-4(1H)-thione] | > 100 µg/mL |
| CS(=O)(=O)Oc1ccc2c(=S)cc[nH]c2c1 [compound 28, 7-Methanesulfonyloxyquinoline-4(1H)-thione] | 25 µg/mL (≈ 97.9 µM) |

Other lines, results leading:

| MIC | Compound |
| --- | --- |
| > 100 µg/mL | CCOc1ccc2c(=S)cc[nH]c2c1 [compound 22, 7-Ethoxyquinoline-4(1H)-thione] |
| > 100 µg/mL | CCCCCCOc1ccc2c(=S)cc[nH]c2c1 [compound 24, 7-n-Hexyloxyquinoline-4(1H)-thione] |
| 100 µg/mL (≈ 456 µM) | CCCOc1ccc2c(=S)cc[nH]c2c1 [compound 26, 7-n-Propoxyquinoline-4(1H)-thione] |

Tested on: K.pneumoniae PCI 602
Test: Antibacterial Test 2: agar plate dilution method (aerobic MIC method), K.pneumoniae
Type: cell-based
Settings: Klebsiella pneumoniae, PCI602, sensitive-disk agar medium-N
Procedure: as §1, §2, §3, §4

| Compound | MIC |
| --- | --- |
| CC(C)Oc1ccc2c(=S)cc[nH]c2c1 [compound 23, 7-Isopropyloxyquinoline-4(1H)-thione] | > 100 µg/mL |
| CS(=O)(=O)Oc1ccc2c(=S)cc[nH]c2c1 [compound 28, 7-Methanesulfonyloxyquinoline-4(1H)-thione] | > 100 µg/mL |

The remaining lines, values ahead:

| MIC | Compound |
| --- | --- |
| > 100 µg/mL | CCOc1ccc2c(=S)cc[nH]c2c1 [compound 22, 7-Ethoxyquinoline-4(1H)-thione] |
| > 100 µg/mL | CCCCCCOc1ccc2c(=S)cc[nH]c2c1 [compound 24, 7-n-Hexyloxyquinoline-4(1H)-thione] |
| > 100 µg/mL | CCCOc1ccc2c(=S)cc[nH]c2c1 [compound 26, 7-n-Propoxyquinoline-4(1H)-thione] |

Tested on: P.aeruginosa IFO 3445
Test: Antibacterial Test 2: agar plate dilution method (aerobic MIC method), P.aeruginosa
Type: cell-based
Settings: Pseudomonas aeruginosa, IFO3445, sensitive-disk agar medium-N
Procedure: as §1, §2, §3, §4

| Compound | MIC |
| --- | --- |
| CC(C)Oc1ccc2c(=S)cc[nH]c2c1 [compound 23, 7-Isopropyloxyquinoline-4(1H)-thione] | > 100 µg/mL |
| CS(=O)(=O)Oc1ccc2c(=S)cc[nH]c2c1 [compound 28, 7-Methanesulfonyloxyquinoline-4(1H)-thione] | > 100 µg/mL |

Further lines, results first:

| MIC | Compound |
| --- | --- |
| > 100 µg/mL | CCOc1ccc2c(=S)cc[nH]c2c1 [compound 22, 7-Ethoxyquinoline-4(1H)-thione] |
| > 100 µg/mL | CCCCCCOc1ccc2c(=S)cc[nH]c2c1 [compound 24, 7-n-Hexyloxyquinoline-4(1H)-thione] |
| > 100 µg/mL | CCCOc1ccc2c(=S)cc[nH]c2c1 [compound 26, 7-n-Propoxyquinoline-4(1H)-thione] |

Tested on: E.coli NIHJ JC-2
Test: Antibacterial Test 2: agar plate dilution method (aerobic MIC method), E.coli
Type: cell-based
Settings: Escherichia coli, NIHJJC2, sensitive-disk agar medium-N
Procedure: as §1, §2, §3, §4

| Compound | MIC |
| --- | --- |
| CC(C)Oc1ccc2c(=S)cc[nH]c2c1 [compound 23, 7-Isopropyloxyquinoline-4(1H)-thione] | > 100 µg/mL |
| CS(=O)(=O)Oc1ccc2c(=S)cc[nH]c2c1 [compound 28, 7-Methanesulfonyloxyquinoline-4(1H)-thione] | > 100 µg/mL |

Now from value to compound:

| MIC | Compound |
| --- | --- |
| > 100 µg/mL | CCOc1ccc2c(=S)cc[nH]c2c1 [compound 22, 7-Ethoxyquinoline-4(1H)-thione] |
| > 100 µg/mL | CCCCCCOc1ccc2c(=S)cc[nH]c2c1 [compound 24, 7-n-Hexyloxyquinoline-4(1H)-thione] |
| > 100 µg/mL | CCCOc1ccc2c(=S)cc[nH]c2c1 [compound 26, 7-n-Propoxyquinoline-4(1H)-thione] |

Tested on: M.luteus ATCC 9341
Test: Antibacterial Test 2: agar plate dilution method (aerobic MIC method), M.luteus
Type: cell-based
Settings: Micrococcus luteus, ATCC9341, sensitive-disk agar medium-N
Procedure: as §1, §2, §3, §4

| Compound | MIC |
| --- | --- |
| CC(C)Oc1ccc2c(=S)cc[nH]c2c1 [compound 23, 7-Isopropyloxyquinoline-4(1H)-thione] | > 100 µg/mL |
| CS(=O)(=O)Oc1ccc2c(=S)cc[nH]c2c1 [compound 28, 7-Methanesulfonyloxyquinoline-4(1H)-thione] | 50 µg/mL (≈ 196 µM) |

Now from value to compound:

| MIC | Compound |
| --- | --- |
| > 100 µg/mL | CCOc1ccc2c(=S)cc[nH]c2c1 [compound 22, 7-Ethoxyquinoline-4(1H)-thione] |
| > 100 µg/mL | CCCCCCOc1ccc2c(=S)cc[nH]c2c1 [compound 24, 7-n-Hexyloxyquinoline-4(1H)-thione] |
| > 100 µg/mL | CCCOc1ccc2c(=S)cc[nH]c2c1 [compound 26, 7-n-Propoxyquinoline-4(1H)-thione] |

Tested on: Helicobacter pylori standard strain ATCC 43526 (NCTC 11916)
Test: Antibacterial test 1: agar plate dilution method (anaerobic MIC method) against Hp
Type: cell-based
Settings: 72 h; Helicobacter pylori ATCC 43526 (NCTC 11916); brucella agar + 7% horse blood, microaerobic, 37° C., 3 days
Procedure: Antibacterial test against Hp was performed in substantial accordance with agar plate dilution method (anaerobic MIC method) based on Standard method of The Japan Society of Chemotherapy to determine minimum inhibitory concentration (MIC) of the respective test compounds. The respective test compounds were sequentially dissolved in dimethyl sulfoxide (DMSO) and serially diluted twofold. […] Strain used for inoculation was Helicobacter pylori standard strain ATCC 43526 (NCTC 11916). For pre-culturing of bacteria to be inoculated, the above-mentioned strain freezingly conserved at -135° C. was thawed in a warm bath (40° C.), applied on a brucella agar medium containing 7% horse blood free from fibrin, and microaerobically cultured in a jar for anaerobic bacteria at 37° C. for 3 days. The solution of bacteria to be inoculated was prepared by collecting colonies grown on the culture medium and suspending the same in the brucella broth.

| Compound | MIC |
| --- | --- |
| CC(C)Oc1ccc2c(=S)cc[nH]c2c1 [compound 23, 7-Isopropyloxyquinoline-4(1H)-thione] | 0.78 µg/mL |
| CS(=O)(=O)Oc1ccc2c(=S)cc[nH]c2c1 [compound 28, 7-Methanesulfonyloxyquinoline-4(1H)-thione] | 0.39 µg/mL |

Other lines, results leading:

| MIC | Compound |
| --- | --- |
| 3.13 µg/mL | CCOc1ccc2c(=S)cc[nH]c2c1 [compound 22, 7-Ethoxyquinoline-4(1H)-thione] |
| 1.56 µg/mL | CCCCCCOc1ccc2c(=S)cc[nH]c2c1 [compound 24, 7-n-Hexyloxyquinoline-4(1H)-thione] |
| 1.56 µg/mL | CCCOc1ccc2c(=S)cc[nH]c2c1 [compound 26, 7-n-Propoxyquinoline-4(1H)-thione] |

Tested on: E.faecalis RIMD 3336001
Test: Antibacterial Test 2: agar plate dilution method (aerobic MIC method), E.faecalis
Type: cell-based
Settings: Enterococcus faecalis, RIMD3336001, sensitive-disk agar medium-N
Procedure: as §1, §2, §3, §4

| Compound | MIC |
| --- | --- |
| CC(C)Oc1ccc2c(=S)cc[nH]c2c1 [compound 23, 7-Isopropyloxyquinoline-4(1H)-thione] | > 100 µg/mL |
| CS(=O)(=O)Oc1ccc2c(=S)cc[nH]c2c1 [compound 28, 7-Methanesulfonyloxyquinoline-4(1H)-thione] | 50 µg/mL (≈ 196 µM) |

Second part, the compound after the results:

| MIC | Compound |
| --- | --- |
| > 100 µg/mL | CCOc1ccc2c(=S)cc[nH]c2c1 [compound 22, 7-Ethoxyquinoline-4(1H)-thione] |
| > 100 µg/mL | CCCCCCOc1ccc2c(=S)cc[nH]c2c1 [compound 24, 7-n-Hexyloxyquinoline-4(1H)-thione] |
| > 100 µg/mL | CCCOc1ccc2c(=S)cc[nH]c2c1 [compound 26, 7-n-Propoxyquinoline-4(1H)-thione] |

Tested on: B.subtilis PCI 219
Test: Antibacterial Test 2: agar plate dilution method (aerobic MIC method), B.subtilis
Type: cell-based
Settings: Bacillus subtilis, PCI219, sensitive-disk agar medium-N
Procedure: as §1, §2, §3, §4

| Compound | MIC |
| --- | --- |
| CC(C)Oc1ccc2c(=S)cc[nH]c2c1 [compound 23, 7-Isopropyloxyquinoline-4(1H)-thione] | > 100 µg/mL |
| CS(=O)(=O)Oc1ccc2c(=S)cc[nH]c2c1 [compound 28, 7-Methanesulfonyloxyquinoline-4(1H)-thione] | > 100 µg/mL |

Results, then the compound that gave them:

| MIC | Compound |
| --- | --- |
| > 100 µg/mL | CCOc1ccc2c(=S)cc[nH]c2c1 [compound 22, 7-Ethoxyquinoline-4(1H)-thione] |
| > 100 µg/mL | CCCCCCOc1ccc2c(=S)cc[nH]c2c1 [compound 24, 7-n-Hexyloxyquinoline-4(1H)-thione] |
| > 100 µg/mL | CCCOc1ccc2c(=S)cc[nH]c2c1 [compound 26, 7-n-Propoxyquinoline-4(1H)-thione] |
